Reference: article PMC3235152, “Heteromeric Anopheline Odorant Receptors Exhibit Distinct Channel Properties” (PLoS ONE, 2011)

Experiments:
AgOrco + AgOr10 [1] = target: T1, AgOrco + AgOr10 (Anopheles gambiae, UniProt B5U0U7+Q7QCC7); assay: Ca++ imaging concentration-response in HEK cells; format: cell-based
T1 construct: gene Orco; heteromer of unknown stoichiometry; VUAA1 acts on Orco, odorant on Or10, ruthenium red at the pore
T1 sequence (Q7QCC7 1-478): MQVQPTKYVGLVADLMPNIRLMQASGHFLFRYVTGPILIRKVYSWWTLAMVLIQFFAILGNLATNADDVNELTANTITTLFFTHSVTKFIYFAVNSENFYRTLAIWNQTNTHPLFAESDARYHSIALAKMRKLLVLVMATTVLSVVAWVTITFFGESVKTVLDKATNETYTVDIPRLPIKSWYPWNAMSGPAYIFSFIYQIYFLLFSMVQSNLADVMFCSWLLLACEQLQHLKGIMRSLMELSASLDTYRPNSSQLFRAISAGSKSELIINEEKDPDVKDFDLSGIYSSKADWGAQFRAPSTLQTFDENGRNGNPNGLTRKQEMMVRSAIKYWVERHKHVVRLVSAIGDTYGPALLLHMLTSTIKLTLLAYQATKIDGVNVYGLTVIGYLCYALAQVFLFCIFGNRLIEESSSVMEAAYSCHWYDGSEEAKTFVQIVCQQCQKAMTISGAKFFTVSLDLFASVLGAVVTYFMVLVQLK
T1 sequence (B5U0U7 1-375): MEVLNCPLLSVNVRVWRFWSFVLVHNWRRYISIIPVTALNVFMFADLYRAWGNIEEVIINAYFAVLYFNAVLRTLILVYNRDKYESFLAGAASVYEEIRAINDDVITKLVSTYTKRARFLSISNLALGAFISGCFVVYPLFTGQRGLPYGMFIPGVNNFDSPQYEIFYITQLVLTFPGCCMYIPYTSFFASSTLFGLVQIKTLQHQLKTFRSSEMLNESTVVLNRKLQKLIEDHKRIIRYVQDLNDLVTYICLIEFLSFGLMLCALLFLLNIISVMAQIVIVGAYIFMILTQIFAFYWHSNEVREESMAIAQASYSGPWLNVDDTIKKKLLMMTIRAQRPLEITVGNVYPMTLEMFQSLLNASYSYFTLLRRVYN

AgOrco + AgOr8 = target: T2, AgOrco + AgOr8 (Anopheles gambiae, UniProt Q7PUT5+Q7QCC7); assay: Ca++ imaging concentration-response in HEK cells; format: cell-based
T2 construct: gene Orco; heteromer of unknown stoichiometry; VUAA1 acts on Orco, odorant on Or8, ruthenium red at the pore
T2 sequence (Q7QCC7 1-478): T1 sequence (Q7QCC7 1-478)
T2 sequence (Q7PUT5 1-399): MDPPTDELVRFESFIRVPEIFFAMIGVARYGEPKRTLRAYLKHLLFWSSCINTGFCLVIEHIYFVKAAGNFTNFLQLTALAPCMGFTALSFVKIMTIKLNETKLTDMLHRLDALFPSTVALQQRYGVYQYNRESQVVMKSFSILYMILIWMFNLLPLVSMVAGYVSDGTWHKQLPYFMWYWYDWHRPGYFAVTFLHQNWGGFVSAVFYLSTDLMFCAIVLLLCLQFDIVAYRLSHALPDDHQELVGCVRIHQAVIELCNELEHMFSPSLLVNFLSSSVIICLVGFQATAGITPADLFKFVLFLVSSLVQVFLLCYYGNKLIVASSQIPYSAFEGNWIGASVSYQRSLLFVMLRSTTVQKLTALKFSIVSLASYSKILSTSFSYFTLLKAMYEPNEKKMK

AgOrco + AgOr65 = test system: T3, AgOrco + AgOr65; assay: Ca++ imaging concentration-response in HEK cells; format: cell-based, Anopheles gambiae; conditions: Orco agonist; AgOrco homomers may coexist
T3 construct: gene Orco; heteromer of unknown stoichiometry; VUAA1 acts on Orco, odorant on Or65, ruthenium red at the pore

AgOrco = target: T4, AgOrco (Anopheles gambiae, UniProt Q7QCC7); assay: Ca++ imaging concentration-response in HEK cells; format: cell-based
T4 construct: gene Orco; Orco homomer, stoichiometry unknown
T4 sequence (Q7QCC7 1-478): T1 sequence (Q7QCC7 1-478)

AgOrco + AgOr28 = test system: T5, AgOrco + AgOr28; assay: Ca++ imaging concentration-response in HEK cells; format: cell-based, Anopheles gambiae; conditions: Orco agonist; AgOrco homomers may coexist
T5 construct: gene Orco; heteromer of unknown stoichiometry; VUAA1 acts on Orco, odorant on Or28, ruthenium red at the pore

AgOrco + AgOr10 [2] = target: T1, AgOrco + AgOr10; assay: whole-cell patch clamp, block of agonist-induced current; format: cell-based; conditions: 100 µM benzaldehyde as agonist; -60 mV; pH 7.35; 20–22°C; pore blocker, noncompetitive with VUAA1

| Structure (SMILES) | EC50 (AgOrco + AgOr10 [1]) | EC50 (AgOrco + AgOr8) | EC50 (AgOrco + AgOr65) | EC50 (AgOrco) | EC50 (AgOrco + AgOr28) | % current reduction at 100 μM (AgOrco + AgOr10 [2]) |
| --- | --- | --- | --- | --- | --- | --- |
| CCc1ccc(NC(=O)CSc2nnc(-c3cccnc3)n2CC)cc1 [VUAA1, N-(4-ethylphenyl)-2-((4-ethyl-5-(3-pyridinyl)-4H-1,2,4-triazol-3-yl)thio)acetamide] | 12.3 µM | 13.2 µM | −4.42±0.02 logM | 49 µM | −4.47±0.02 logM | – |
| N.N.N.N.N.N.N.N.N.N.N.N.N.N.[Cl-].[Cl-].[Cl-].[Cl-].[Cl-].[Cl-].[O-2].[O-2].[Ru+3].[Ru+3].[Ru+4] [ruthenium red] | – | – | – | – | – | 78.5±1.4% |
